Experimental data published in paper PMC3127123, “Effect of 2-Hydroxypropyl-β-cyclodextrin on Solubility of Sparingly Soluble Drug Derivatives of Anthranilic Acid” (International Journal of Molecular Sciences, 2011).
Converted amounts (≈) assume the structure as drawn. Like-named read-outs stand apart in the source and are kept apart here.

How the values were obtained:
[1] = Phase solubility study: drug solubility in buffer solutions by UV-vis spectrophotometry; assay type: physicochemical; conditions: buffer solution without cyclodextrin, thermodynamic from solid, no cyclodextrin, read-out: solubility (C) in water (buffer solution), CD
Protocol: The calibration curves are included in these figures. The absorption spectra were recorded in the range of 190–350 nm and for the calculation of […] the change of absorption was measured at 340 nm (pH 7.0), 195 nm (pH 2.0) for MEF; 245 nm (pH 7.0), and 250 nm (pH 2.0) for NIF and 255 nm (pH 7.0), and 225 nm (pH 2.0) for FLU, respectively.
The UV-Vis spectrophotometer (Perkin–Elmer Life and Analytical Sciences, Shelton, USA) was used to determine the 2HP-β-CD influence on drug solubility. Maximum drug concentration was measured at different cyclodextrins concentrations, temperatures and pHs. Samples contained buffer solution with pH 7 or 2, 2HP-β-CD in different concentrations, i.e., 0, 1, 2, 4, 7 or 10 mmol·dm^−3 and drug in excess. Samples were thermostated and mixed for 20 hours and then left for 4 hours for separation. The uncertainties of the temperature measurements were judged to be 0.1 K. Absorbance of each sample was measured with the UV-vis spectrophotometer.
The stability constants were determined by the measurements of the concentration of the drug in the sample as a function of the cyclodextrin concentration. Such a method is usually called “Phase solubility study” [31]. In this method complex stability constants are calculated from the obtained solubility data using a spectophotometric method. As a reference sample, the buffer + 2HP-β-CD solutions were used. Two buffers were prepared (mol concentration) i.e., potassium dihydrogen phosphate (0.008), disodium hydrogen phosphate (0.008; buffer, pH = 7.0), potassium dihydrogen phosphate (0.05), hydrochloric acid (0.05, buffer, pH = 2.0). Samples were scanned with a scan step of 1 nm from 650 to 190 nm. Measurements at pH = 10 were not performed in all systems, because of the necessity of using too high drug concentrations and because of problems with separation of two phases.

[2] = Phase solubility study: effect of 2HP-β-CD on drug solubility and cyclodextrin-drug complex stability/dissociation constants; assay type: physicochemical; conditions: for cyclodextrin-drug complex stability constant Ks: 1:1 complex, Higuchi-Connors; for Kd: Kd = 1/Ks, value is Kd multiplied by 10^3, read-out: dissociation constant Kd·10^3; for solubility enhance ratio (R): drug concentration at highest 2HP-β-CD concentration relative to no cyclodextrin; for stability constant log Ks: pH = 7, T = 298.15 K, our value, phase solubility
Protocol: Solubility enhance ratio, R, was calculated as a drug concentration at the highest cyclodextrin concentration with relation to drug concentration in the absence of cyclodextrin. […] The opposite effect is observed for NIF. […] In general, when the solubility of the drug is very low, the solubility enhance ratio, R is high. Substitution of hydroxyl groups surrounding the 2HP-β-CD rim by the hydroxypropyl group promotes the complex formation process for drug derivatives of anthranilic acid with polar carboxylic substituent. […] Measurements of cyclodextrin-drug complex stability constants Ks and dissociation constants Kd are very important since these values indicate changes in physicochemical properties of a compound upon inclusion. Linear dependence of drug concentration to cyclodextrin concentration, with slope ratio below one usually assumes 1:1 ratio of complex. The stability constant, Ks, for complexes with 1:1 ratio is represented by: (1) Ks=[CD]/[D]⋅[C] Where: [D] is pure drug concentration, [C] is pure cyclodextrin concentration, and [CD] is concentration of drug-cyclodextrin complexes in solution. Complex dissociation constant, Kd, is represented by: […] For such systems, stability constant can be obtained by the following equation, investigated previously by Higuchi and Connors, 1965 [25]: (3) Ks=K1:1=slope/c0⋅(1−slope) […] Maximum drug concentration was measured at different cyclodextrins concentrations, temperatures and pHs. […] Samples were thermostated and mixed for 20 hours and then left for 4 hours for separation. The uncertainties of the temperature measurements were judged to be 0.1 K. Absorbance of each sample was measured with the UV-vis spectrophotometer. The stability constants were determined by the measurements of the concentration of the drug in the sample as a function of the cyclodextrin concentration. Such a method is usually called “Phase solubility study” [31]. In this method complex stability constants are calculated from the obtained solubility data using a spectophotometric method. As a reference sample, the buffer + 2HP-β-CD solutions were used. Two buffers were prepared (mol concentration) i.e., potassium dihydrogen phosphate (0.008), disodium hydrogen phosphate (0.008; buffer, pH = 7.0), potassium dihydrogen phosphate (0.05), hydrochloric acid (0.05, buffer, pH = 2.0). Samples were scanned with a scan step of 1 nm from 650 to 190 nm. Measurements at pH = 10 were not performed in all systems, because of the necessity of using too high drug concentrations and because of problems with separation of two phases.

[3] = Thermodynamic parameters of complexation from temperature dependence of stability constant (van't Hoff); assay type: physicochemical; conditions: T = 298.15 K, pH = 7 (buffer solution)
Source text: Thermodynamic parameters of reactions i.e. the free energy change (ΔG), the enthalpy change (ΔH) and the entropy change (ΔS), can be obtained from the temperature dependence of stability constant.

[4] = T = 298.15 K, cited from earlier work
[5] = cited from earlier work
[6] = parameters: method as in earlier work; conditions: aqueous ethanol; cited from earlier work
[7] = pH 2, aqueous buffer, pH 2, T = 298.15 K
[8] = pH 2, aqueous buffer, pH 2, T = 310.15 K
[9] = pH 7, aqueous buffer, pH 7, T = 298.15 K
[10] = pH 7, aqueous buffer, pH 7, T = 310.15 K
[11] = previous work, densimetry and 1H NMR measurements

## Cc1cccc(Nc2ccccc2C(=O)O)c1C [Mefenamic acid]
[1]; [7]
  solubility at 20 h: 1 µM (≈ 0.241 µg/mL)
[1]; [8]
  solubility at 20 h: 1 µM (≈ 0.241 µg/mL)
[1]; [9]
  solubility at 20 h: 155 µM (≈ 37.4 µg/mL)
[1]; [10]
  solubility at 20 h: 220 µM (≈ 53.1 µg/mL)
[2]; pH 2, T = 298.15 K
  cyclodextrin-drug complex stability constant Ks: 539 M⁻¹
  Kd: 1.86 mM
  solubility enhance ratio (R): 6.4
[2]; pH 2, T = 310.15 K
  cyclodextrin-drug complex stability constant Ks: 1627 M⁻¹
  Kd: 0.62 mM
  solubility enhance ratio (R): 17.3
[2]; pH 7, T = 298.15 K
  cyclodextrin-drug complex stability constant Ks: 383 M⁻¹
  Kd: 2.61 mM
  solubility enhance ratio (R): 4.6
[2]; pH 7, T = 310.15 K
  cyclodextrin-drug complex stability constant Ks: 562 M⁻¹
  Kd: 1.78 mM
  solubility enhance ratio (R): 6.0
[3]
  entropy change (ΔS) of complexation: −33.0 J·mol^−1·K^−1
  free energy change (ΔG) of complexation: -3.51 kcal/mol
[4]; pH between 3 and 6
  solubility in water: 0.87 × 10^−4 mmol·dm^−3

## O=C(O)c1ccccc1Nc1cccc(C(F)(F)F)c1 [Flufenamic acid]
[1]; [7]
  solubility at 20 h: 6 µM (≈ 1.69 µg/mL)
[1]; [8]
  solubility at 20 h: 15 µM (≈ 4.22 µg/mL)
[1]; [9]
  solubility at 20 h: 228 µM (≈ 64.1 µg/mL)
[1]; [10]
  solubility at 20 h: 298 µM (≈ 83.8 µg/mL)
[2]; pH 2, T = 298.15 K
  cyclodextrin-drug complex stability constant Ks: 3055 M⁻¹
  Kd: 0.33 mM
  solubility enhance ratio (R): 31.0
[2]; pH 2, T = 310.15 K
  cyclodextrin-drug complex stability constant Ks: 1850 M⁻¹
  Kd: 0.54 mM
  solubility enhance ratio (R): 19.0
[2]; pH 7, T = 298.15 K
  cyclodextrin-drug complex stability constant Ks: 202 M⁻¹
  Kd: 4.95 mM
  solubility enhance ratio (R): 2.9
[2]; pH 7, T = 310.15 K
  cyclodextrin-drug complex stability constant Ks: 218 M⁻¹
  Kd: 4.59 mM
  solubility enhance ratio (R): 3.0
[2]
  stability constant log Ks: 2.30
[3]
  entropy change (ΔS) of complexation: 50.2 J·mol^−1·K^−1
[5]; phase-solubility diagrams, pH = 6.75, T = 298.15 K
  stability constant log Ks: 2.36
[4]
  solubility in water: 2.38 × 10^−2 mmol·dm^−3

## Oc1cc(Cl)ccc1Oc1ccc(Cl)cc1Cl [triclosan]
[6]
  solubility increase on complexation with 2HP-β-CD: 70 fold

## O=C(O)c1cccnc1Nc1cccc(C(F)(F)F)c1 [Niflumic acid]
[1]; [7]
  solubility at 20 h: 698 µM (≈ 197 µg/mL)
[1]; [8]
  solubility at 20 h: 925 µM (≈ 261 µg/mL)
[1]; [9]
  solubility at 20 h: 5750 µM (≈ 1620 µg/mL)
[1]; [10]
  solubility at 20 h: 8170 µM (≈ 2310 µg/mL)
[2]; pH 2, T = 298.15 K
  cyclodextrin-drug complex stability constant Ks: 26 M⁻¹
  Kd: 38.9 mM
  solubility enhance ratio (R): 1.3
[2]; pH 2, T = 310.15 K
  cyclodextrin-drug complex stability constant Ks: 33 M⁻¹
  Kd: 29.2 mM
  solubility enhance ratio (R): 1.3
[2]; pH 7, T = 298.15 K
  cyclodextrin-drug complex stability constant Ks: 96 M⁻¹
  Kd: 10.4 mM
  solubility enhance ratio (R): 1.6
[2]; pH 7, T = 310.15 K
  cyclodextrin-drug complex stability constant Ks: 82 M⁻¹
  Kd: 12.2 mM
  solubility enhance ratio (R): 1.5
[2]
  stability constant log Ks: 1.98
[3]
  enthalpy change (ΔH) of complexation: -2.39 kcal/mol
  entropy change (ΔS) of complexation: 4.3 J·mol^−1·K^−1
  free energy change (ΔG) of complexation: -2.7 kcal/mol
[5]; 1H NMR, pH = 7.4, T = 298.15 K
  stability constant log Ks: 2.3
[5]; T = 298.15 K, pH = 7.4
  free energy change (ΔG) of complexation: -2.94 kcal/mol
[5]; UV-vis, pH = 7.4, T = 298.15 K
  stability constant log Ks: 3.09
[5]; calorimetric measurements, pH = 7.4, T = 298.15 K
  stability constant log Ks: 2.2
[5]; densimetry, pH = 7.4, T = 298.15 K
  stability constant log Ks: 2.8
[5]; pH = 7, T = 298.15 K, cyclodextrin not named at the place
  stability constant log Ks: 2.72
[5]; pH = 12, T = 298.15 K, cyclodextrin not named at the place
  stability constant log Ks: 2.53
[5]; [11]
  enthalpy of complexation: -4.8 kcal/mol
  entropy of complexation: negative
